Experimental data reported in patent US20080051330A1, “Inhibitors of serine protease activity, methods and compositions for treatment of herpes viruses” (priority 1999, published 2008).
* marks the point of attachment. Cbz = O=C(OCc1ccccc1)*; CHN2 = [N-]=[N+]=C*

B1: Cystatin C: human cysteine proteinase inhibitor present in extracellular fluids (protein, UniProt P01034 27-146, looked up)
Cystatin-C: SSPGKPPRLVGGPMDASVEEEGVRRALDFAVGEYNKASNDMYHSRALQVVRARKQIVAGVNYFLDVELGRTTCTKTQPNLDNCPFHDQPHLKRKAFCSFQIYAVPWQGTMTLSKSTCQDA

Columns and labels:
[1] = system: Herpes simplex virus-2, strain MS; assay type: in vivo, SCID mouse; settings: SCID mice; for survival rate: HSV-2 at 1000 times LD50 on abraded skin, topical, three times daily for 7 days from 2 hours after inoculation, compound 100 mg/kg, untreated control 20%
[2] = system: HSV; settings: at molar concentration lower than that of acyclovir; cited from earlier work
[3] = system: HSV; assay: Activity against HSV in vitro: ELISA with rabbit anti-HSV antibody in infected human lung fibroblast cells; assay type: cell-based, HSV-1 and HSV-2; settings: HLF cells, virus absorbed in presence or absence of AAT
[4] = system: CMV; assay: Activity against CMV in vitro: plaque reduction assay in human lung fibroblast cells; assay type: cell-based; settings: HLF cells, plaques counted day 6-10 post-infection

| Molecule | survival rate [1] | inhibitory effect on HSV replication [2] | effect on HSV by ELISA, optical density expressed as percent of control [3] | reduction in number of CMV plaques [4] | percentage of mice surviving, in words, relative to vehicle control ([1]; HSV-2 at 1000 times LD50) |
| --- | --- | --- | --- | --- | --- |
| Nc1nc2c(ncn2COCCO)c(=O)[nH]1 [acyclovir, reference compound] | about 60% | – | – | – | – |
| Cbz-Leu-Val-Gly-CHN2 [reference compound] | – | strong inhibitory effects | – | – | – |
| AAT: glycoprotein of MW 51,000 with 394 amino acids and 3 oligosaccharide side chains; serine protease inhibitor | about 60% | – | significant inhibitory effect | significant inhibitory effect | significantly greater |
| B1 | – | strong inhibitory effects | – | – | – |
